Data on one compound can be found in patent US11547687B2, “Neprilysin inhibitors” (THERAVANCE BIOPHARMA R&D IP, LLC, priority 2011, dated 2023).

The target of the assay is human NEP (Homo sapiens (Human), UniProt P08473). In words: In vitro enzyme inhibition assay at human NEP (Assay 1). It counts as biochemical. The following applies: pKi values at human NEP, reported as ranges.

For `CC(C)COC(=O)C(=O)N[C@H](Cc1ccc(-c2cc(Cl)ccc2Cl)cc1)C[C@@H](O)C(=O)O` [Example 3D, (2R,4R)-5-(2′,5′-Dichlorobiphenyl-4-yl)-2-hydroxy-4-(isobutoxyoxalylamino)-pentanoic Acid], the pKi (usually the negative decadic logarithm of the Ki, by convention in mol/L) is listed as ≥9.
